# Experiment: Curcumin retention in curcumin-cyclodextrin inclusion complex solution left standing 10 days
# Format: physicochemical
# Conditions: 10 days at room temperature without shielding from light
row,SMILES,curcumin remained in the solution
1,OC[C@H]1O[C@@H]2O[C@H]3[C@H](O)[C@@H](O)[C@@H](O[C@H]4[C@H](O)[C@@H](O)[C@@H](O[C@H]5[C@H](O)[C@@H](O)[C@@H](O[C@H]6[C@H](O)[C@@H](O)[C@@H](O[C@H]7[C@H](O)[C@@H](O)[C@@H](O[C@H]1[C@H](O)[C@H]2O)O[C@@H]7CO)O[C@@H]6CO)O[C@@H]5CO)O[C@@H]4CO)O[C@@H]3CO [α-cyclodextrin],36.83%
2,OC[C@H]1O[C@@H]2O[C@H]3[C@H](O)[C@@H](O)[C@@H](O[C@H]4[C@H](O)[C@@H](O)[C@@H](O[C@H]5[C@H](O)[C@@H](O)[C@@H](O[C@H]6[C@H](O)[C@@H](O)[C@@H](O[C@H]7[C@H](O)[C@@H](O)[C@@H](O[C@H]8[C@H](O)[C@@H](O)[C@@H](O[C@H]1[C@H](O)[C@H]2O)O[C@@H]8CO)O[C@@H]7CO)O[C@@H]6CO)O[C@@H]5CO)O[C@@H]4CO)O[C@@H]3CO [β-cyclodextrin],32.30%
3,OC[C@H]1O[C@@H]2O[C@H]3[C@H](O)[C@@H](O)[C@@H](O[C@H]4[C@H](O)[C@@H](O)[C@@H](O[C@H]5[C@H](O)[C@@H](O)[C@@H](O[C@H]6[C@H](O)[C@@H](O)[C@@H](O[C@H]7[C@H](O)[C@@H](O)[C@@H](O[C@H]8[C@H](O)[C@@H](O)[C@@H](O[C@H]9[C@H](O)[C@@H](O)[C@@H](O[C@H]1[C@H](O)[C@H]2O)O[C@@H]9CO)O[C@@H]8CO)O[C@@H]7CO)O[C@@H]6CO)O[C@@H]5CO)O[C@@H]4CO)O[C@@H]3CO [γ-cyclodextrin],21.94%

# Reference: US11840584B2, “Simple and green method for preparation of acid modified cyclodextrin” (priority 2020, dated 2023)
